This is an account of results in US7723328B2, “Methods of facilitating cell survival using neurotrophin mimetics” (The University of North Carolina at Chapel Hill, priority 2005, dated 2010).

Data set [1] has as its system E16-17 mouse hippocampal neurons. Put plainly: Hippocampal neuron survival (morphology plus MTT conversion). Format: cell-based. The protocol:
(§1) Hippocampal neurons were prepared from E16-17 mouse embryos as previously described (Yang. T. et al. (2003) J Neurosci 23, 3353-3363). […] For studies employing p75^NTR+/+ and p75^NTR−/− neurons, mice carrying a mutation in exon 3 of the p75^NTR gene (Lee, K. F. et al. (1992) Cell 69, 737-749) were bred onto a B6 congenic background (>10 B6 backcrosses).
(§2) After 48 hours in culture, cell survival was assessed as previously described (Longo, F. M., Manthorpe. M., Xie. Y. M., Varon, S. (1997) J Neurosci Res 48, 1-17) using a combination of standard morphological criteria along with visual determination of whether a given cell converted MTT to its blue formazan product. The number of surviving neurons was determined by counting the total number of cells in each well that were both morphologically intact and filed with blue product (Longo F. M., Manthorpe. M., Xie, Y. M., Varon, S. (1997) J Neurosci Res 48, 1-17). For each neurotrophin or compound concentration, duplicate wells were counted and the resulting values averaged. Activity of each compound was confirmed by blinded counts. Counts were normalized to survival achieved with 25 ng/ml BDNF or to baseline survival. Fitting of dose-responsive curves was performed with Sigmaplot obtained from SYSTAT Software Inc. (Richmond, Calif., United States of America).

Data set [2] deals with TrkA-Fc. The data set can be described thus: NGF/TrkA-Fc binding by NGF ELISA. The following applies: up to 10,000 nM compound. On the procedure:
(§3) Briefly, 96-well plates were incubated with 0.1 pmol (at 1 nM) of p75/Fc or TrkA/Fc recombinant protein obtained from R&D System (Minneapolis, Minn., United States of America) overnight at 4° C. followed by incubation with blocking buffer for 1 hour at room temperature. […] Plates were then washed five times with Tris-buffered saline (TBS) containing 0.05% Tween-20 and incubated with anti-NGF rabbit polyclonal antibody overnight at 4° C. Following five washes with TBS, wells were incubated for 2.5 hours at room temperature with anti-rabbit IgG HRP conjugate and washed five times. 3,3′,5,5′-tetramethyl-benzidine substrate was added and the optical density measured at 450 nm.
Background: ELISA stands for enzyme-linked immunosorbent assay.

A short description of data set [3]: Preliminary studies of oral uptake and blood-brain barrier penetration. Format: in vivo.
The target of data set [4] is T1, TrkA (Homo sapiens, UniProt P04629).
T1 construct: expressed in transfected cells; host or cells: 3T3 cells (3T3-TrkA)
The data set can be described thus: Trk Y490 phosphorylation western blot in TrkA-expressing 3T3 cells. The format is cell-based. The protocol: (§4) Lysates were centrifuged, the supernatant collected, and protein concentrations determined using the BCA Protein Assay Reagent obtained from Pierce (Rockford, Ill., United States of America). Western blots were performed as described previously (Yang, T. et al. (2003) J Neurosci 23, 3353-3363). Western blot signals were detected using the ECL Chemiluminescence System obtained by Amersham (Piscataway, N.J., United States of America) (Yang, T. et al. (2003) J Neurosci 23, 3353-3363).

Data set [5] relates to cortical and septal neurons. Put plainly: Aβ-induced degeneration of cortical and septal neurons. The format is cell-based.
Data set [6] relates to hippocampal neurons. The data set can be described thus: Hippocampal neuron survival with p75NTR antisera (antibody inhibition). The following applies: antiserum 1:100, 48 h. Format: cell-based, mouse. The protocol: as §1, §2
(§5) For all studies applying signaling inhibitors, p75^NTR antibodies or p75^NTR−/− neurons, survival was assessed at 48 hours.

Data set [7] deals with T2, p75^NTR (Homo sapiens, UniProt P08138).
T2 construct: purchased R&D Systems
The data set can be described thus: proNGF binding to p75NTR by ELISA. The following applies: 100 ng/ml proNGF. On the procedure: as §3

Data set [8] relates to p75^NTR−/− cells. The data set can be described thus: Survival of p75NTR+/+ versus p75NTR-/- hippocampal neurons. The format is cell-based, mouse. The following applies: neurotrophins 1.8 nM, compounds 5 nM. The protocol: as §1, §2, §5
Data set [9] is described as follows: Age-related hair loss in middle-aged male mice. Format: in vivo.
Data set [10] concerns hippocampal neurons. Put plainly: Hippocampal neuron survival with signaling pathway inhibitors. The settings on record: BDNF/NGF 25 ng/ml, compounds 5 nM, 48 h. The format is cell-based, mouse. The protocol:
as §1, §2, §5

Data set [11] has as its system AKT. Put plainly: AKT activation western blot in hippocampal cultures. The format is cell-based, mouse. The settings on record: 20 nM, relative to NGF. On the procedure: For assays of Trk, AKT, NFκB, and ERK activation, hippocampal neurons derived from E16-17 mice were cultured in poly-L-lysine coated six-well plates (Corning, Inc., Corning, N.Y., United States of America) in DMEM containing 10% FBS, followed by incubation in serum-free DMEM for 2 hours before addition of neurotrophins or compounds. At the indicated time points, neurons were harvested in lysis buffer consisting of: 20 mM Tris, pH 8.0, 137 mM NaCl, 1% Igepal CA-630, 10% glycerol, 1 mM PMSF, 10 μg/ml aprotinin, 1 μg/ml leupeptin, 500 μM orthovanadate (Zhou, J., Valletta, J. S., Grimes, M. L., Mobley, W. C. (1995) J Neurochem 65, 1146-1156).
as §4
(Immunoblotting shows a protein as a band on a membrane.)

“Also recorded” adds a separate entry of the source.

T2 sequence (P08138 with tags, fused parts or gaps limits assumed): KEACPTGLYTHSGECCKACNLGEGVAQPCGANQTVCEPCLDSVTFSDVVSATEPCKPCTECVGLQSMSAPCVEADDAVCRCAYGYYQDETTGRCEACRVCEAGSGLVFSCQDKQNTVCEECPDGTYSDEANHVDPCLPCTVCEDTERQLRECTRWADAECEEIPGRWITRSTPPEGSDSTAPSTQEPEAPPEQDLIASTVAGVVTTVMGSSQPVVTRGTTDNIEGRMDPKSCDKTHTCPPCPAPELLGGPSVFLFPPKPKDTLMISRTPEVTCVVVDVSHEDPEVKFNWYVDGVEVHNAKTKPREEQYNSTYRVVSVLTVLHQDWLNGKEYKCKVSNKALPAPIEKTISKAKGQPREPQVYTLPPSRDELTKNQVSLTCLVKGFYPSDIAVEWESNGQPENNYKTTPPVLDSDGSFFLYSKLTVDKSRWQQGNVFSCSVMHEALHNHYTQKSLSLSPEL
T1 sequence (P04629 33-796, species assumed): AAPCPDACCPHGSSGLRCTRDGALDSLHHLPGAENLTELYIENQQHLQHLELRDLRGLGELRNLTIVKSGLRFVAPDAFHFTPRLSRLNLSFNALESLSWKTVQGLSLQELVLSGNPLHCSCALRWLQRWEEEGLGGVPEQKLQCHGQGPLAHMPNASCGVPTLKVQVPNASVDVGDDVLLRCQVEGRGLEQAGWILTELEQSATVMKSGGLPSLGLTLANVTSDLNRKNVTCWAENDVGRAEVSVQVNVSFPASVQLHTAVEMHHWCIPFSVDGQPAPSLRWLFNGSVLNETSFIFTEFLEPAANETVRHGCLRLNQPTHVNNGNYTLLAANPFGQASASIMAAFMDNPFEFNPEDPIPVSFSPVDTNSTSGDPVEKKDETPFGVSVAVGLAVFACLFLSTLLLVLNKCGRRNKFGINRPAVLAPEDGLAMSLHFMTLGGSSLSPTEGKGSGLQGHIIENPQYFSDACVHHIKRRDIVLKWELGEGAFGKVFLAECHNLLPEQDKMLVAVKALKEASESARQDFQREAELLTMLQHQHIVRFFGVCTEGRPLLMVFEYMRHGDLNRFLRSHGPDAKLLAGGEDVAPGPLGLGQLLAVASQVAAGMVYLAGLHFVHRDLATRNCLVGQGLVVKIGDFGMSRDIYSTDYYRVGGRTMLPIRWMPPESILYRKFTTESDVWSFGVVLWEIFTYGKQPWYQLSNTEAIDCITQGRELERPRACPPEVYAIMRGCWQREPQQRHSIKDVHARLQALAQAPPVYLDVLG

In the case of `CCC(C)C(N)C(=O)NCCN1CCOCC1` (stereo not drawn) [Compound 4], the “additive effect on survival with NGF” value in data set [1] (5 nM compound along with 50 ng/ml NGF) was “no additive effect on survival”. Also, the concentration for a half-maximal effect (EC50) – broadly, the concentration that produces a half-maximal response – in data set [1] (Mus musculus, Hippocampal neuron, dose-response, FIG. 2b, read-out: EC50 of survival-promoting (biologic) effect) was approximately 0.15 nM. Further, in [2], the “effect on NGF binding to TrkA-Fc” value is reported as “did not affect; also recorded: no compound effects up to 10,000 nM”. In data set [3], the blood-brain barrier penetration entry is reported as “blood-brain barrier penetration” and the oral uptake result is on record as “significant oral uptake”. Besides, in data set [4], the “TrkA activation (Trk Y490 phosphorylation)” value is recorded as “no detectable activation”. The “block of Aβ-induced degeneration of cortical and septal neurons” value in data set [5] is “block Aβ-induced degeneration of cortical and septal neurons”. Besides, in data set [6], the “effect of Ab 9651 on promotion of neuron survival by the substance” value is reported as “completely blocked; also recorded: completely inhibits” and the “survival versus CM in the presence of Ab 9651” value was “not significant”. In [7] (P<0.01), the “proNGF ELISA signal versus proNGF alone” value was “significantly less than proNGF alone”. In addition, the “decrement of proNGF binding to p75NTR” value in data set [7] (at the highest concentration (range 1500 nM to 10,000 nM)) is on record as “approximately 30%”. Moreover, in data set [8], the “effect of p75NTR-deficiency on promotion of neuron survival by the substance” value is given as “completely inhibits”. In data set [9] (both studies pooled, p 0.001 Fisher's Exact test vs vehicle), the “mice with hair loss, studies taken together” value is 0 of 14. Further, the “mice with hair loss” value in [9] (follow up study, middle-aged male mice, 2-month time point) is given as 0 of 9. Moreover, the “mice with age-related hair loss” value in data set [9] (three-month toxicology trial, male mice) is reported as 0 of 5. In addition, the “effect of PD98059 (ERK inhibitor) on survival promoted by the substance” value in [10] (PD98059 50 μM) is on record as “no significant decrease”. Besides, the “effect of SN50 (NFκB translocation inhibitor) on survival promoted by the substance” value in data set [10] (SN50 2.5 μg/ml) was “significantly reduced”. Further, in data set [11], the “onset of AKT activation” value is listed as “slower than that of NGF”.
